Measurements published in patent US10420812B2, “Drug combinations and uses in treating a coughing condition” (Infirst Healthcare Limited, priority 2009, dated 2019).
Where “and” joins values, the source holds several entries; their conditions need not be identical. Identical values can stand only once.

Columns and labels:
[1] = tested on: citric acid induced cough responses; assay: Citric acid induced cough, theobromine and expectorant (Example 7)
[2] = tested on: citric acid induced cough responses; assay: Citric acid induced cough, theobromine and opiate antitussive agent (Example 4); format: in vivo, guinea pig
[3] = tested on: citric acid induced cough responses; assay: Citric acid induced cough, theobromine and neuropathic pain agent (Example 9)
[4] = tested on: citric acid induced cough responses; assay: Citric acid induced cough, theobromine and ACE inhibitor (Example 11)
[5] = tested on: citric acid induced cough responses; assay: Citric acid induced cough, theobromine and terpene (Example 10)
[6] = tested on: citric acid induced cough responses; assay: Citric acid induced cough, theobromine and non-opiate antitussive agent (Example 3)
[7] = tested on: citric acid induced cough responses; assay: Citric acid induced cough, theobromine and decongestant (Example 5); format: in vivo, guinea pig
[8] = tested on: citric acid induced cough responses; assay: Citric acid induced cough, oral and intratracheal theobromine (Example 2); conditions: 30 min prior
[9] = tested on: citric acid induced cough responses; assay: Citric acid induced cough, theobromine and antihistamine (Example 6)
[10] = tested on: citric acid induced cough responses; assay: Citric acid induced cough, theobromine and NSAID (Example 8)
[11] = tested on: citric acid induced cough; conditions: guinea-pigs (Minamizawa et al. 2006); cited from earlier work
[12] = tested on: citric acid induced cough responses; assay: Citric acid induced cough, oral theobromine (Example 1); format: in vivo, guinea pig; conditions: 120 min prior to citric acid exposure
[13] = tested on: coughing condition; assay: Treatment of a coughing condition, patient cases (Example 12); format: in vivo, human; conditions: person, after about 2 days
[14] = tested on: cough; conditions: clinical treatment; apparent success attributed to placebo effect (Ramsey et al.); cited from earlier work
[15] = guaifenesin 30 mg/kg p.o., 60 min prior
[16] = codeine 25 mg/kg i.p., 30 min prior
[17] = ibuprofen 30 mg/kg p.o. only, 60 min prior
[18] = gabapentin 60 mg/kg p.o. only, 60 min prior
[19] = captopril 30 mg/kg p.o., 120 min prior
[20] = theobromine 7 mg/kg p.o., 120 min prior
[21] = theobromine 10 mg/kg p.o., 120 min prior
[22] = theobromine 30 mg/kg p.o., 120 min prior
[23] = theobromine 10 mg/kg p.o., 30 min prior

In the case of `COc1ccccc1OCC(O)CO` (stereo not drawn) [guaifenesin], the “Cough Events Mean Number” value [1, 15] is reported as 28 ± 3 coughs and the “Cough Events Mean Onset Time” value [1, 15] is reported as 52 ± 10 s.
With `COc1ccc2c3c1O[C@H]1[C@@H](O)C=C[C@H]4[C@@H](C2)N(C)CC[C@@]341` [codeine] the “Cough Events Mean Number” value [2, 16] was 6 ± 1 coughs, the “Cough Events Mean Onset Time” value [2, 16] was 195 ± 33 s and the “number of citric acid induced coughs” value [3, 16] was 9±4 coughs. For the same compound, the “onset time to the first cough” value [3, 16] was 161 ± 31 s, the “number of citric acid induced coughs” value [4, 16] was 7±3 coughs and the “onset time to the first cough” value [4, 16] was 170 ± 28 s. For the same compound, the “number of citric acid induced coughs” value [5, 16] was 6±2 coughs, the “onset time to the first cough” value [5, 16] was 170 ± 28 s and the “Cough Events Mean Number” value [6, 16] was 7 ± 2 coughs. For the same compound, the “Cough Events Mean Onset Time” value [6, 16] was 170 ± 32 s, the “Cough Events Mean Number” value [7, 16] was 6 ± 1 coughs and the “Cough Events Mean Onset Time” value [7, 16] was 195 ± 25 s. The “Cough Events Mean Number” value ([8]; codeine 25 mg/kg i.p.) was 5 ± 1 coughs, the “Cough Events Mean Onset Time” value ([8]; codeine 25 mg/kg i.p.) was 337 ± 51 s and the “Cough Events Mean Number” value [9, 16] was 5 ± 1 coughs. For the same compound, the “Cough Events Mean Onset Time” value [9, 16] was 236 ± 22 s, the “number of citric acid induced coughs” value [10, 16] was 8±3 coughs and the “onset time to the first cough” value [10, 16] was 150 ± 32 s.
In the case of `CN[C@@H](C)[C@@H](O)c1ccccc1` [pseudoephedrine], the “efficacy in the citric acid induced cough model” value [11] is given as “very limited efficacy”.
In the case of `CC(C)Cc1ccc(C(C)C(=O)O)cc1` (stereo not drawn) [Ibuprofen], the “onset time to the first cough” value [10, 17] is reported as 70 ± 5 s and the “total number of coughs” value [10, 17] is reported as 22±6 coughs.
For `NCC1(CC(=O)O)CCCCC1` [Gabapentin], the “onset time to the first cough” value [3, 18] was 90 ± 6 s and the “total number of coughs” value [3, 18] was 24±8 coughs.
In the case of `C[C@H](CS)C(=O)N1CCC[C@H]1C(=O)O` [captopril], the “onset time to the first cough” value [4, 19] is reported as 34 ± 12 s and the “total number of coughs” value [4, 19] is reported as 45±12 coughs.
In the case of `Cn1cnc2c1c(=O)[nH]c(=O)n2C` [theobromine, 3,7-dihydro-3,7-dimethyl-1H-purine-2,6-dione], the “Cough Events Mean Number” value ([12]; theobromine 3 mg/kg p.o.) is reported as 25 ± 4 coughs, the “Cough Events Mean Onset Time” value ([12]; theobromine 3 mg/kg p.o.) is reported as 73 ± 17 s and the “Cough Events Mean Number” value ([12]; theobromine 7 mg/kg p.o.) is reported as 18 ± 3 coughs. The “Cough Events Mean Onset Time” value ([12]; theobromine 7 mg/kg p.o.) was 98 ± 36 s, the “Cough Events Mean Number” value [2, 20] was 19 ± 3 coughs and the “Cough Events Mean Onset Time” value [2, 20] was 91 ± 13 s. The “number of citric acid induced coughs” value [3, 21] was 14±4 coughs, the “onset time to the first cough” value [3, 21] was 108 ± 19 s and the “number of citric acid induced coughs” value [4, 22] was 10±4 coughs. The “onset time to the first cough” value [4, 22] was 125 ± 22 s, the “number of citric acid induced coughs” value [5, 21] was 14±5 coughs and the “onset time to the first cough” value [5, 21] was 120 ± 23 s. The “Cough Events Mean Number” value [6, 21] was 13 ± 2 coughs, the “Cough Events Mean Onset Time” value [6, 21] was 139 ± 22 s and the “Cough Events Mean Number” value [1, 23] was 15 ± 3 coughs. The “Cough Events Mean Onset Time” value [1, 23] was 126 ± 12 s, the “Cough Events Mean Number” value [7, 21] was 13 ± 3 coughs and the “Cough Events Mean Onset Time” value [7, 21] was 156 ± 15 s. For the same compound, the “Cough Events Mean Number” value ([8]; theobromine 3 mg/kg i.t.) was 17 ± 2 coughs, the “Cough Events Mean Onset Time” value ([8]; theobromine 3 mg/kg i.t.) was 115 ± 29 s and the “Cough Events Mean Number” value ([8]; theobromine 10 mg/kg i.t.) was 10.3±2 coughs and 10 ± 2 coughs. For the same compound, the “Cough Events Mean Onset Time” value ([8]; theobromine 10 mg/kg i.t.) was 134 ± 18 s, the “Cough Events Mean Number” value ([8]; theobromine 30 mg/kg i.t.) was 6 ± 1 coughs and the “Cough Events Mean Onset Time” value ([8]; theobromine 30 mg/kg i.t.) was 210 ± 22 s. The “Cough Events Mean Number” value ([8]; theobromine 30 mg/kg p.o.) was 12 ± 2 coughs, the “Cough Events Mean Onset Time” value ([8]; theobromine 30 mg/kg p.o.) was 126 ± 20 s and the “Cough Events Mean Number” value [9, 21] was 15 ± 2 coughs. For the same compound, the “Cough Events Mean Onset Time” value [9, 21] was 103 ± 15 s, the “coughing episodes as indicated by patient” value ([13]; cough as side-effect of ACE inhibitor medication, theobromine in conjunction with the ACE inhibitor) was “decreased coughing episodes” and the “coughing episodes as indicated by patient” value ([13]; cough due to angiotensin II receptor antagonist medication, theobromine in conjunction with it) was “decreased coughing episodes”. The “number of citric acid induced coughs” value [10, 21] was 15±3 coughs and the “onset time to the first cough” value [10, 21] was 113 ± 15 s.
In the case of `COc1ccc2c(c1)[C@]13CCCC[C@@H]1[C@H](C2)N(C)CC3` [Dextromethorphan], the “efficacy in treating cough” value [14] is given as “no efficacy”.
